# Source: patent US20240158446A1, “CYCLIC COMPOUND HAVING SELECTIVE INHIBITORY ACTION ON KRAS OVER HRAS AND NRAS” (CHUGAI SEIYAKU KABUSHIKI KAISHA, priority 2021, published 2024)
# pKd: −log10 of the molar value. Like-named read-outs stand apart in the source and are kept apart here. Where a SMILES comes first, the peptide text is derived from it. Bridges are numbered along the chain shown (N, C = ends). [ ]: non-standard residue; d: D form. The star is where a group is joined. hPhe(3-Cl-4-CF3) = N[C@@H](CCc1ccc(C(F)(F)F)c(Cl)c1)C(=O)O; NPrPhe(4-CF3) = CCCN[C@@H](Cc1ccc(C(F)(F)F)cc1)C(=O)O; NMeGly(cPent) = CN[C@H](C(=O)O)C1CCCC1; Pro(4,4-F2) = O=C(O)[C@@H]1CC(F)(F)CN1; Gly(cBu) = N[C@H](C(=O)O)C1CCC1; NMeD = CN[C@@H](CC(=O)O)C(=O)O; NMeL = CN[C@@H](CC(C)C)C(=O)O; Morpholide = C1CN(*)CCO1; Ac5c = NC1(C(=O)O)CCCC1; NEtG = CCNCC(=O)O; Sar = CNCC(=O)O
# Tests used:
# [1] = target: GDP-bound KRAS wild-type protein (Homo sapiens, UniProt P01116); experiment: Binding to KRAS by surface plasmon resonance (SPR), Single Cycle Kinetics; conditions: GDP-bound KRAS wild-type protein, read-out: KRAS KD
# Chain of GDP-bound KRAS wild-type protein (P01116 whole entry): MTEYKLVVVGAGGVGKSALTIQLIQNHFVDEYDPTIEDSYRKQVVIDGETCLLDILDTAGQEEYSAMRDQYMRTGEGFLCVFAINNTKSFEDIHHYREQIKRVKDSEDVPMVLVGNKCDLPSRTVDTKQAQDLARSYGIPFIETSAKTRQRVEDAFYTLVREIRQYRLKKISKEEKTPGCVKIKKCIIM
# [2] = target: GDP-bound NRAS wild-type protein (Homo sapiens, UniProt P01111); experiment: Binding to NRAS by surface plasmon resonance (SPR), Single Cycle Kinetics; conditions: for NRAS/KRAS (ratio of KD value with respect to NRAS to KD value with respect to KRAS) / NRAS/KRAS (ratio of KD value for NRAS to KD value for KRAS): SPR, GDP-bound NRAS wild-type protein vs GDP-bound KRAS wild-type protein
# Chain of GDP-bound NRAS wild-type protein (P01111 whole entry): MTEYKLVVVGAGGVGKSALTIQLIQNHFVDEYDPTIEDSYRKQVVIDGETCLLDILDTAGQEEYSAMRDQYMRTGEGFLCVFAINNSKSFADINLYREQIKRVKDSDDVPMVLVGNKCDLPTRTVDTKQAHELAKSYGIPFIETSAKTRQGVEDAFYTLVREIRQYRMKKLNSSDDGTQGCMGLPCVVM
# [3] = target: GDP-bound HRAS wild-type protein (Homo sapiens, UniProt P01112); experiment: Binding to HRAS by surface plasmon resonance (SPR), Single Cycle Kinetics; conditions: for HRAS/KRAS (ratio of KD value with respect to HRAS to KD value with respect to KRAS) / HRAS/KRAS (ratio of KD value for HRAS to KD value for KRAS): SPR, GDP-bound HRAS wild-type protein vs GDP-bound KRAS wild-type protein
# Chain of GDP-bound HRAS wild-type protein (P01112 whole entry): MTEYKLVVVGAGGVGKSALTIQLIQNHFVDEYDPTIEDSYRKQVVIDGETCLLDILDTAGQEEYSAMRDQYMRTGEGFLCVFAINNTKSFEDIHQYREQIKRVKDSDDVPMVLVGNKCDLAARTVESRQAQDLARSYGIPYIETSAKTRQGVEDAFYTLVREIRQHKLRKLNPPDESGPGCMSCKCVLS
# [4] = SPR Single Cycle Kinetics, 1:1 binding model
# [5] = SPR, Single Cycle Kinetics, 1:1 binding model
"pKd [1, 4]",Compound,NRAS/KRAS (ratio of KD value with respect to NRAS to KD value with respect to KRAS) [2],HRAS/KRAS (ratio of KD value with respect to HRAS to KD value with respect to KRAS) [3],NRAS/KRAS (ratio of KD value for NRAS to KD value for KRAS) [2],HRAS/KRAS (ratio of KD value for HRAS to KD value for KRAS) [3],further results
10.70,CC[C@H](C)[C@@H]1NC(=O)[C@H](C)N(C)C(=O)C[C@@H](C(=O)N2CCOCC2)N(C)C(=O)[C@H](C2CCCC2)N(C)C(=O)C2(CCC2)NC(=O)[C@@H]2CC(F)(F)CN2C(=O)[C@H](CCc2cc(F)c(C(F)(F)F)c(F)c2)NC(=O)CN(C)C(=O)[C@H](Cc2ccc(C(F)(F)F)cc2)N2CCCC[C@@H](C2=O)N(C)C(=O)CN(C)C1=O [PP0582],C (A compound having a KD ratio of 0.1 or more and less than 3 is denoted as C),B (a compound having 3 or more and less than 10 is denoted as B),,,
9.27,CCCN1C(=O)CN(C)C(=O)CN(CC)C(=O)[C@H](C2CCC2)NC(=O)[C@H](CC(C)C)N(C)C(=O)C[C@@H](C(=O)N2CCOCC2)N(C)C(=O)[C@H](C2CCCC2)N(C)C(=O)C2(CCCC2)NC(=O)[C@@H]2CCCN2C(=O)[C@H](CCc2ccc(C(F)(F)F)c(Cl)c2)NC(=O)CN(C)C(=O)[C@@H]1Cc1ccc(C(F)(F)F)cc1 [PP0292] ([NMeL][Gly(cBu)][NEtG][Sar][NPrPhe(4-CF3)][Sar][hPhe(3-Cl-4-CF3)]P[Ac5c][NMeGly(cPent)][NMeD]-Morpholide; lactam N-11),,,B (a compound having 3 or more and less than 10 is denoted as B),C (A compound having a KD ratio of 0.1 or more and less than 3 is denoted as C),
8.85,CCCN1C(=O)CN(C)C(=O)CN(CC)C(=O)[C@H]([C@@H](C)CC)NC(=O)[C@H](CC(C)C)N(C)C(=O)C[C@@H](C(=O)N2CCOCC2)N(C)C(=O)[C@H](C2CCCC2)N(C)C(=O)C2(CCCC2)NC(=O)CN(C)C(=O)[C@H](CCc2ccc(C(F)(F)F)c(Cl)c2)NC(=O)CN(C)C(=O)[C@@H]1Cc1ccc(C(F)(F)F)cc1 [PP0300] ([NMeL]I[NEtG][Sar][NPrPhe(4-CF3)][Sar][hPhe(3-Cl-4-CF3)][Sar][Ac5c][NMeGly(cPent)][NMeD]-Morpholide; lactam N-11),,,B (a compound having 3 or more and less than 10 is denoted as B),C (A compound having a KD ratio of 0.1 or more and less than 3 is denoted as C),
9.20,CC[C@H](C)[C@@H]1NC(=O)[C@H](CC(C)C)N(C)C(=O)C[C@@H](C(=O)N2CCOCC2)N(C)C(=O)[C@H](C2CCCC2)N(C)C(=O)C2(CCCC2)NC(=O)[C@@H]2CCCN2C(=O)[C@H](CCc2ccc(C(F)(F)F)c(Cl)c2)NC(=O)CN(C)C(=O)[C@H](Cc2ccc(OC(F)(F)F)cc2)N2CCCC[C@@H](C2=O)N(C)C(=O)CN(C)C1=O [PP0536],B (a compound having 3 or more and less than 10 is denoted as B),B (a compound having 3 or more and less than 10 is denoted as B),,,
10.57,CC[C@H](C)[C@@H]1NC(=O)[C@H](CC(C)C)N(C)C(=O)C[C@@H](C(=O)N2CCOCC2)N(C)C(=O)[C@H](C2CCCC2)N(C)C(=O)C2(CCC2)NC(=O)[C@@H]2C[C@@H](C(F)(F)F)CN2C(=O)[C@H](CCc2cc(F)c(C(F)(F)F)c(F)c2)NC(=O)CN(C)C(=O)[C@H](Cc2ccc(C(F)(F)F)cc2)N2CCCC[C@@H](C2=O)N(C)C(=O)CN(C)C1=O [PP0809],B (a compound having 3 or more and less than 10 is denoted as B),B (a compound having 3 or more and less than 10 is denoted as B),,,
9.22,CCO[C@@H]1C[C@H]2C(=O)NC3(CCC3)C(=O)N(C)[C@@H](C3CCCC3)C(=O)N(CCC3CCCC3)[C@H](C(=O)N3CCOCC3)CC(=O)N(C)[C@@H](CC(C)C)C(=O)N[C@@H]([C@@H](C)CC)C(=O)N(C)CC(=O)N(C)[C@H]3CCCCN(C3=O)[C@@H](Cc3ccc(C(F)(F)F)cc3)C(=O)N(C)CC(=O)N[C@@H](CCc3cc(F)c(C(F)(F)F)c(F)c3)C(=O)N2C1 [PP0651],B (a compound having 3 or more and less than 10 is denoted as B),B (a compound having 3 or more and less than 10 is denoted as B),,,
10.48,CCO[C@@H]1C[C@H]2C(=O)NC3(CCC3)C(=O)N(C)[C@@H](C3CCCC3)C(=O)N(C)[C@H](C(=O)N3CCOCC3)CC(=O)N(C)[C@@H](CC3CCC3)C(=O)N[C@@H]([C@@H](C)CC)C(=O)N(C)CC(=O)N(C)[C@H]3CCCCN(C3=O)[C@@H](Cc3ccc(C(F)(F)F)cc3)C(=O)N(C)CC(=O)N[C@@H](CCc3cc(F)c(C(F)(F)F)c(F)c3)C(=O)N2C1 [PP0713],C (A compound having a KD ratio of 0.1 or more and less than 3 is denoted as C),B (a compound having 3 or more and less than 10 is denoted as B),,,

# The next lines start with the compound.
Compound,"pKd [1, 4]",NRAS/KRAS (ratio of KD value with respect to NRAS to KD value with respect to KRAS) [2],HRAS/KRAS (ratio of KD value with respect to HRAS to KD value with respect to KRAS) [3],NRAS/KRAS (ratio of KD value for NRAS to KD value for KRAS) [2],HRAS/KRAS (ratio of KD value for HRAS to KD value for KRAS) [3],further results
"CCCN1C(=O)CN(C)C(=O)CNC(=O)[C@H]([C@@H](C)CC)NC(=O)[C@H](CC(C)C)N(C)C(=O)C[C@@H](C(=O)N(C)C)N(C)C(=O)[C@H](C2CCCC2)N(C)C(=O)C2(CCCC2)NC(=O)[C@@H]2CC(F)(F)CN2C(=O)[C@H](CCc2ccc(C(F)(F)F)c(Cl)c2)NC(=O)CN(C)C(=O)[C@@H]1Cc1ccc(C(F)(F)F)cc1 [PP0419] ([NMeL]IG[Sar][NPrPhe(4-CF3)][Sar][hPhe(3-Cl-4-CF3)][Pro(4,4-F2)][Ac5c][NMeGly(cPent)][NMeD]-NMe2; lactam N-11)",10.17,B (a compound having 3 or more and less than 10 is denoted as B),C (A compound having a KD ratio of 0.1 or more and less than 3 is denoted as C),,,
CCO[C@@H]1C[C@H]2C(=O)NC3(CC(C)(C)C3)C(=O)N(C)[C@@H](C3CCCC3)C(=O)N(C)[C@H](C(C)C)CC(=O)N(C)[C@@H](CC)C(=O)N[C@@H]([C@@H](C)CC)C(=O)N(C)CC(=O)N(C)[C@H]3C/C=C\CCN(C3=O)[C@@H](CC3CCCCC3)C(=O)N(C)CC(=O)N[C@@H](CCc3cc(F)c(C(F)(F)F)c(F)c3)C(=O)N2C1 [PP1603],,,,,,"pKd [1, 5]: 8.28; NRAS/KRAS (ratio of KD value for NRAS to KD value for KRAS) ([2]; KD ratio class): B (a compound having 3 or more and less than 10 is denoted as B); HRAS/KRAS (ratio of KD value for HRAS to KD value for KRAS) ([3]; KD ratio class): B (a compound having 3 or more and less than 10 is denoted as B)"
CCO[C@@H]1C[C@H]2C(=O)NC3(CC(C)(C)C3)C(=O)N(C)[C@@H](C(CC)CC)C(=O)N(C)[C@H](C(=O)N(C)C)CC(=O)N(C)[C@@H](COC)C(=O)N[C@@H]([C@@H](C)CC)C(=O)N(C)CC(=O)N(C)[C@H]3C/C=C\CCN(C3=O)[C@@H](Cc3ccc(C(F)(F)F)cc3)C(=O)N(C)CC(=O)N[C@@H](CCc3ccc(C(F)(F)F)c(OC)c3)C(=O)N2C1 [PP2157],,,,A (a compound having 10 or more and less than 20 is denoted as A),A (a compound having 10 or more and less than 20 is denoted as A),"pKd ([1]; SPR, Single Cycle Kinetics): 9.72"
CCO[C@@H]1C[C@H]2C(=O)NC3(CCC3)C(=O)N(C)[C@@H](C3CCCC3)C(=O)N(C)[C@H](C(=O)N(C)CC)CC(=O)N(C)[C@@H](CC(F)F)C(=O)N[C@@H]([C@@H](C)CC)C(=O)N(C)CC(=O)N(C)[C@H]3C/C=C\CCN(C3=O)[C@@H](Cc3ccc(C(F)(F)F)cc3)C(=O)N(C)CC(=O)N[C@@H](CCc3cc(F)c(C(F)(F)F)c(F)c3)C(=O)N2C1 [PP1303],,,,,,"pKd [1, 5]: 10.17; NRAS/KRAS (ratio of KD value for NRAS to KD value for KRAS) ([2]; KD ratio class): AA (a compound having 20 or more is denoted as AA); HRAS/KRAS (ratio of KD value for HRAS to KD value for KRAS) ([3]; KD ratio class): A (a compound having 10 or more and less than 20 is denoted as A)"
CCC[C@H]1C(=O)N[C@@H]([C@@H](C)CC)C(=O)N(C)CC(=O)N(C)[C@H]2C/C=C\CCN(C2=O)[C@@H](Cc2ccc(C(F)(F)F)cc2)C(=O)N(C)CC(=O)N[C@@H](CCc2cc(Cl)c3sccc3c2)C(=O)N2C[C@H](OCC)C[C@H]2C(=O)NC2(CC(C)(C)C2)C(=O)N(C)[C@@H](C(CC)CC)C(=O)N(C)[C@H](C(=O)N(C)C)CC(=O)N1C [PP2888],9.41,,,,,"NRAS/KRAS (ratio of KD value with respect to GDP-bound NRAS wild-type protein to KD value with respect to KRAS) ([2]; SPR KD ratio NRAS/KRAS, class symbols): AA (a compound having 20 or more is denoted as AA); HRAS/KRAS (ratio of KD value with respect to GDP-bound HRAS wild-type protein to KD value with respect to KRAS) ([3]; SPR KD ratio HRAS/KRAS, class symbols): A (a compound having 10 or more and less than 20 is denoted as A)"
CC[C@H](C)[C@@H]1NC(=O)[C@@H]2CCC/C=C/c3ccc(cc3)C[C@@H](C(=O)N(C)CC(=O)N[C@@H](CCc3ccc(Cl)c(Cl)c3)C(=O)N3C[C@H](OC4CCCC4)C[C@H]3C(=O)NC3(CC(C)(C)C3)C(=O)N(C)[C@@H](C3CCCC3)C(=O)N(C)[C@H](C(=O)N3CCCC3)CC(=O)N2C)N2CC/C=C\C[C@@H](C2=O)N(C)C(=O)CN(C)C1=O [PP3054],,,,A (a compound having 10 or more and less than 20 is denoted as A),A (a compound having 10 or more and less than 20 is denoted as A),"pKd ([1]; SPR, Single Cycle Kinetics): 9.57"
C#CCN1CC(=O)N(C)[C@H]2C/C=C\CCN(C2=O)[C@@H](Cc2ccc(C(F)(F)F)cc2)C(=O)N(C)CC(=O)N[C@@H](CCc2ccc(C(F)(F)F)c(OC)c2)C(=O)N2C[C@H](OCC)C[C@H]2C(=O)NC2(CC(C)(C)C2)C(=O)N(C)[C@@H](C2CCCC2)C(=O)N(C)[C@H](C(=O)N(C)C)CC(=O)N(C)[C@@H](CCC)C(=O)N[C@@H]([C@@H](C)CC)C1=O [PP2107],,,,A (a compound having 10 or more and less than 20 is denoted as A),A (a compound having 10 or more and less than 20 is denoted as A),"pKd ([1]; SPR, Single Cycle Kinetics): 9.82"
